In this experiment the test system is BDF1 mice, intracerebral L1210 leukemia, survival T/C. As to the kind of experiment: NCI In Vivo Anticancer Drug Screen. Data for tumor model L1210 Leukemia (intracerebral) in B6D2F1 (BDF1) mice. Conditions: endpoint: mean survival time, higher = longer survival. Summed up: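 Transplantable tumour-bearing mice, compound-treated vs vehicle controls; read-out survival, reported as T/C ratio.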

In PubChem BioAssay AID252 (DTP/NCI, 2004) one finds T/C data, which are given here for 2 compounds.

Toxic doses and inconclusive results are not listed. *1 amine or outer side, *2 acyl side, *3 side chain or, on linkers, in order; H or OH if unused. Where a SMILES comes first, the peptide text is derived from it. Bridges are numbered along the chain shown (N, C = ends). Roman numbers before positions name the chains, in order. [ ]: non-standard residue; d: D form. Actinocin(9to1) = Cc1c2oc3c(C)ccc(C(=O)[*:1])c3nc-2c(C(=O)[*:2])c(N)c1=O; aThr = C[C@H](O)[C@H](N)C(=O)O; NMeV = CN[C@H](C(=O)O)C(C)C; Sar = CNCC(=O)O

In the case of `Cc1c2oc3c(C)ccc(C(=O)N[C@@H]4C(=O)N[C@H](C(C)C)C(=O)N5CCC[C@H]5C(=O)N(C)CC(=O)N(C)[C@@H](C(C)C)C(=O)O[C@H]4C)c3nc-2c(C(=O)N[C@@H]2C(=O)N[C@H](C(C)C)C(=O)N3CCC[C@H]3C(=O)N(C)CC(=O)N(C)[C@@H](C(C)C)C(=O)O[C@H]2C)c(N)c1=O` (I: [aThr][dV]P[Sar][NMeV] / II: [aThr][dV]P[Sar][NMeV]; ester I:1-I:C, II:1-II:C; linker I:N-II:N via Actinocin(9to1)), the T/C by setting is: (dose: 0.11 mg/kg/injection, schedule: Q01DX001 (ip), vehicle: saline) 97 % of control; (dose: 0.18 mg/kg/injection, schedule: Q01DX001 (ip), vehicle: saline) 102 % of control; (dose: 0.27 mg/kg/injection, schedule: Q01DX001 (ip), vehicle: saline) 102 % of control; (dose: 12.0 micrograms/kg/injection, schedule: Q01DX Z (ip), vehicle: saline) 101 % of control; (dose: 25.0 micrograms/kg/injection, schedule: Q01DX Z (ip), vehicle: saline) 104 % of control; (dose: 50.0 micrograms/kg/injection, schedule: Q01DX Z (ip), vehicle: saline) 102 % of control. The T/C (dose: 100.0 micrograms/kg/injection, schedule: Q01DX Z (ip), vehicle: saline) was 101 % of control.

`CC(=O)OC1CCC(NC(=O)N(CCF)N=O)CC1` (stereo not given): the T/C runs as follows: (dose: 24.0 mg/kg/injection, schedule: Q01DX001 (ip), vehicle: other) 276 % of control; (dose: 32.0 mg/kg/injection, schedule: Q01DX001 (oral), vehicle: other) 516 % of control; (dose: 36.0 mg/kg/injection, schedule: Q01DX001 (ip), vehicle: other) 509 % of control.
